In ChEMBL document CHEMBL1145668, “The Effect of Ultraviolet Light on the Toxicity of Natural Products Toward the Eggs of Drosophila melanogaster” (J Nat Prod, 1983):
Calls of active or inactive are those of the source. The calls are words filed in the database; no cut-off is given here.

How the values were obtained:
Saccharomyces cerevisiae = experiment: Phototoxicity against Saccharomyces cerevisiae; assay type: functional, organism-based
Escherichia coli = experiment: Phototoxicity against Escherichia coli B; assay type: functional, organism-based
[1] = Increase in ovicidal activity against Drosophila melanogaster egg incubated in dark by paper disk method; assay type: ADME
[2] = Ratio of ID50 for Drosophila melanogaster egg to ID50 for Drosophila melanogaster egg irradiated with UV light for 45 mins; assay type: ADME
[3] = Ovicidal activity against Drosophila melanogaster egg by paper disk method; assay type: ADME
Cyberlindnera jadinii = experiment: Phototoxicity against Candida utilis; assay type: functional, organism-based
Drosophila melanogaster = experiment: Phototoxicity against Drosophila melanogaster larvae; assay type: functional, organism-based
Aedes aegypti = experiment: Phototoxicity against Aedes aegypti larvae; assay type: functional, organism-based
[4] = Photoovicidal activity against Drosophila melanogaster egg pretreated 1 hr before UV light irradiation for 45 mins by paper disk method; assay type: ADME; conditions: 0.75 h

## C#Cc1ccc(-c2ccccc2)s1
Saccharomyces cerevisiae
  Activity: Active
Escherichia coli
  Activity: Active
[1]
  Activity: Not Active
[2]
  selectivity ratio at 0.75 h: 200
[3]
  LD50: 4.6 microg/cm2
Cyberlindnera jadinii
  Activity: Active
Drosophila melanogaster
  Activity: Active
Aedes aegypti
  Activity: Active
[4]
  LD50: 0.025 microg/cm2

## O=c1ccc2ccccc2o1 [COUMARIN]
[3]
  LD50: 23 microg/cm2

## CC#Cc1ccc(-c2ccccc2)s1
Saccharomyces cerevisiae
  Activity: Active
Escherichia coli
  Activity: Active
[1]
  Activity: Not Active
[2]
  selectivity ratio at 0.75 h: 225
[3]
  LD50: 2.9 microg/cm2
Cyberlindnera jadinii
  Activity: Active
Drosophila melanogaster
  Activity: Active
Aedes aegypti
  Activity: Active
[4]
  LD50: 0.013 microg/cm2
